Measurements published in patent publication US12060379B2, “Plasmalogen derivatives” (Institute of Rheological Functions of Food, priority 2018, dated 2024).

Experiments:
[1] = test system: ERK (ERK1/2) phosphorylation in mouse neuroblastoma derived NEURO2A cell; assay: ERK (ERK1/2) phosphorylation, Western Blotting, NEURO2A cells; type: cell-based; settings: 5 μg/ml, 30 minutes, compared with s-Pls (FIG. 1)
Procedure: Neuronal cell lines (mouse neuroblastoma derived NEURO2A cell and human neuroblastoma derived SH-SY5Y cell) were cultivated in DMEM medium containing 10% FBS (fetal bovine serum) for 24 hours. […] At this stage, the same amount of protein (50 μg of protein extracts) was subjected to an analysis to compare phosphorylation of ERK (ERK ½) (p-ERK).
Neuronal cell lines (mouse neuroblastoma derived NEURO2A cell) were cultivated in DMEM medium containing 10% FBS (fetal bovine serum) for 24 hours. […] At this stage, the same amount of protein (50 μg of protein extracts) was subjected to an analysis to compare phosphorylation of ERK (ERK %) (p-ERK).

[2] = test system: ERK (ERK1/2) phosphorylation in human neuroblastoma derived SH-SY5Y cell; assay: ERK (ERK1/2) phosphorylation, Western Blotting, SH-SY5Y cells; type: cell-based; settings: 5 μg/ml, 30 minutes, compared with s-Pls (FIG. 1)
Procedure: By using a neuronal cell line, a study was performed with respect to enhanced phosphorylation activities of ERK (ERK1/2) with compounds according to the present invention.
Neuronal cell lines (mouse neuroblastoma derived NEURO2A cell and human neuroblastoma derived SH-SY5Y cell) were cultivated in DMEM medium containing 10% FBS (fetal bovine serum) for 24 hours. Subsequently, they were cultivated in DMEM medium containing 2% FBS for overnight (18 hours), which were then processed with 5 μg/ml of s-Pls (scallop-derived Pls), Compound REO-002 according to the present invention, and Compound REO-003 according to the present invention for 30 minutes respectively, and cells were subjected to Western Blotting assay. At this stage, the same amount of protein (50 μg of protein extracts) was subjected to an analysis to compare phosphorylation of ERK (ERK ½) (p-ERK).
Neuronal cell lines (human neuroblastoma derived SH-SY5Y cell) were cultivated in DMEM medium containing 10% FBS (fetal bovine serum) for 24 hours. Subsequently, they were cultivated in DMEM medium containing 2% FBS for overnight (18 hours), which were then processed with 1 μg/ml, 5 μg/ml of Compounds REO-004-007 according to the present invention for 30 minutes respectively, and cells were subjected to Western Blotting assay. […]

CC/C=C\C/C=C\C/C=C\C/C=C\C/C=C\C/C=C\CCC(=O)O[C@@H](COCCCCCOc1ccccc1)COP(=O)(O)OCCN [REO-003]
enhanced phosphorylation activities of ERK (ERK1/2) (p-ERK) [1]: exhibit enhanced phosphorylation activities of ERK (ERK½) equivalent to s-Pls | enhanced phosphorylation activities of ERK (ERK1/2) (p-ERK) [2]: exhibit enhanced phosphorylation activities of ERK (ERK½) equivalent to s-Pls
